According to ChEMBL document CHEMBL6109180, “De Novo-Designed APC/C Inhibitors Provide a Rationale for Targeting RING-Type E3 Ubiquitin Ligases” (J Med Chem, 2025):
Active and inactive are the calls of the source. The rule behind the calls is not given here. Bridge positions count the residues as written; N and C are the ends. Square brackets hold non-standard residues; d marks the D form. Peptide text beside a SMILES is read from it. R8 = C=CCCCCCC[C@@](C)(N)C(=O)O; S5 = C=CCCC[C@](C)(N)C(=O)O

Experiments:
TERT-RPE1 = assay: Effect on time length of mitosis in human RPE-1 cells at 50 uM measured for 10 to 24 hrs by bright field microscopy; type: functional, cell-based; settings: time 10-24 hrs
HeLa [1] = assay: (§1) Inhibition of recombinant APC/C/cdc20 (unknown origin) in metaphase-synchronized human HeLa cells co-expressing GST-tagged UBA1/UBE2C/methylated ubiquitin using RD680-labeled securin as substrate at 100 uM measured after 45 mins in presence of ATP by immuno-precipitation method; type: cell-based
HeLa [2] = assay: Inhibition of recombinant APC/C/cdc20 (unknown origin) in metaphase-synchronized human HeLa cells co-expressing GST-tagged UBA1/UBE2D1/methylated ubiquitin using RD680-labeled securin as substrate at 100 uM measured after 45 mins in presence of ATP by immuno-precipitation method; type: cell-based
[3] = molecular target: Anaphase-promoting complex subunit 11 (Homo sapiens) (UniProt Q9NYG5); assay: Binding affinity to APC11 (unknown origin) assessed as binding free energy
Chain of Anaphase-promoting complex subunit 11 (Homo sapiens) (Q9NYG5 whole entry, one chain of several): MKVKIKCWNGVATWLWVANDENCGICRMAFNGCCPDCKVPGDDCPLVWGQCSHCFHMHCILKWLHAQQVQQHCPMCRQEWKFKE

HeLa [4] = assay: as §1, with “substrate assessed as maximum inhibition” for “substrate”, “15” for “45”; type: cell-based

Row | SMILES | deltaG [3] | Activity (TERT-RPE1) | inhibition (HeLa [1]) | inhibition (HeLa [2]) | inhibition (HeLa [4])
1 | CC[C@H](C)[C@@H]1NC(=O)[C@H](CCC(=O)O)NC(=O)[C@H](CC(C)C)NC(=O)[C@@H](CCCCN)NC(=O)[C@](C)(NC(=O)[C@H](Cc2c[nH]c3ccccc23)NC(=O)[C@H](Cc2c[nH]c3ccccc23)NC(=O)[C@H](CCC(=O)O)NC(C)=O)CCCCCC/C=C\CCC[C@@](C)(C(=O)N[C@@H](CCCNC(=N)N)C(=O)N[C@@H](CCCNC(=N)N)C(=O)N[C@@H](C)C(N)=O)NC(=O)[C@H](CCCNC(=N)N)NC(=O)[C@H](CCC(N)=O)NC1=O | – | No effect | Active; Compound Exerted Better Inhibitory Effect Than Tame | – | –
2 | CC(=O)N[C@@H](CCC(=O)O)C(=O)N[C@@H](Cc1c[nH]c2ccccc12)C(=O)N[C@@H](Cc1c[nH]c2ccccc12)C(=O)N[C@]1(C)CCCCCC/C=C\CCC[C@@](C)(C(=O)N[C@@H](CCCNC(=N)N)C(=O)N[C@@H](CCCNC(=N)N)C(=O)N[C@@H](C)C(N)=O)NC(=O)[C@H](CCCNC(=N)N)NC(=O)[C@H](CCC(N)=O)NC(=O)[C@H](CC(C)C)NC(=O)[C@H](CCC(=O)O)NC(=O)[C@H](CC(C)C)NC(=O)[C@H](CCCCN)NC1=O (Ac-EWW[R8]KLELQR[S5]RRA-NH2; staple (Z) 4-11) | – | – | Active; Compound Exerted Better Inhibitory Effect Than Tame | – | –
3 | CC(=O)N[C@@H](CCCNC(=N)N)C(=O)N[C@@H](CCCNC(=N)N)C(=O)N[C@@H](CCCCN)C(=O)N[C@]1(C)CCCCCC/C=C\CCC[C@@](C)(C(=O)N[C@H](C(=O)N[C@@H](CCCNC(=N)N)C(=O)N[C@@H](Cc2ccc(O)cc2)C(N)=O)C(C)C)NC(=O)[C@H](CCCNC(=N)N)NC(=O)[C@H](C)NC(=O)[C@H](CCCNC(=N)N)NC(=O)[C@H](CCC(=O)O)NC(=O)[C@H](CCC(N)=O)NC(=O)[C@H](C)NC1=O (Ac-RRK[R8]AQERAR[S5]VRY-NH2; staple (Z) 4-11) | – | – | inactive | – | –
4 | CC[C@H](C)[C@@H]1NC(=O)[C@@](C)(NC(=O)[C@H](CCC(N)=O)NC(=O)[C@@H]2CCCN2C(=O)[C@H](Cc2c[nH]c3ccccc23)NC(=O)[C@H](CCCNC(=N)N)NC(C)=O)CCC/C=C/CCC[C@@](C)(C(=O)N[C@@H](CCC(N)=O)C(=O)N[C@H](C(=O)N[C@@H](CCCNC(=N)N)C(=O)N[C@@H](Cc2c[nH]c3ccccc23)C(=O)N[C@@H](Cc2c[nH]c3ccccc23)C(N)=O)C(C)C)NC(=O)[C@H](CC(=O)O)NC(=O)[C@H](CCCCN)NC1=O (Ac-RWPQ[S5]IKD[S5]QVRWW-NH2; staple (E) 5-9) | – | No effect | Active; Compound Exerted Better Inhibitory Effect Than Tame | – | –
5 | CC(=O)N[C@@H](CCCNC(=N)N)C(=O)N[C@@H](Cc1c[nH]c2ccccc12)C(=O)N1CCC[C@H]1C(=O)N[C@@H](CCC(N)=O)C(=O)N[C@@]1(C)CCC/C=C/CCC[C@@](C)(C(=O)N[C@@H](CCC(N)=O)C(=O)N[C@H](C(=O)N[C@@H](CCCNC(=N)N)C(=O)N[C@@H](CCCNC(=N)N)C(=O)N[C@@H](Cc2c[nH]c3ccccc23)C(N)=O)C(C)C)NC(=O)[C@H](CC(=O)O)NC(=O)[C@H](Cc2c[nH]c3ccccc23)NC(=O)[C@H](CCCCN)NC1=O (Ac-RWPQ[S5]KWD[S5]QVRRW-NH2; staple (E) 5-9) | – | No effect | Active; Compound Exerted Better Inhibitory Effect Than Tame | – | –
6 | C[C@@H](O)[C@H](NC(=O)[C@H](CC(=O)O)NC(=O)CN)C(=O)N[C@H]1CSSC[C@@H](C(=O)N[C@@H](CCC(N)=O)C(=O)N[C@@H](CCCNC(=N)N)C(=O)N[C@@H](Cc2cnc[nH]2)C(=O)O)NC(=O)[C@H](CC(N)=O)NC(=O)[C@H](Cc2c[nH]c3ccccc23)NC(=O)[C@H](CCCNC(=N)N)NC(=O)[C@H](Cc2c[nH]c3ccccc23)NC(=O)[C@H]([C@@H](C)O)NC(=O)[C@H](CCC(=O)O)NC(=O)[C@@H]2CCCN2C(=O)[C@H](CC(=O)O)NC(=O)[C@H](CC(=O)O)NC1=O (H-GDTCDDPETWRWNCQRH-OH; disulfide 4-14) | -29.4 kcal/mol | – | Active | Active | –

More lines, main results first:

Row | deltaG [3] | SMILES | Activity (TERT-RPE1) | inhibition (HeLa [1]) | inhibition (HeLa [2]) | inhibition (HeLa [4])
7 | -19.6 kcal/mol | CC(=O)N[C@H]1CSSC[C@@H](C(=O)N[C@@H](CCC(=O)O)C(=O)N[C@@H](Cc2c[nH]c3ccccc23)C(=O)N[C@@H](CCCNC(=N)N)C(=O)N[C@@H](Cc2ccc(O)cc2)C(N)=O)NC(=O)[C@H](Cc2cnc[nH]2)NC(=O)[C@H](Cc2c[nH]c3ccccc23)NC(=O)[C@H](CCC(N)=O)NC(=O)[C@H](CO)NC(=O)[C@@H]2CCCN2C(=O)CNC(=O)[C@H](C)NC(=O)[C@H](CCC(=O)O)NC1=O (Ac-CEAGPSQWHCEWRY-NH2; disulfide 1-10) | – | – | inactive | –
8 | -18.3 kcal/mol | CC(=O)N[C@H]1CSSC[C@@H](C(=O)N[C@H](C(=O)N[C@@H](Cc2c[nH]c3ccccc23)C(=O)N[C@@H](CCCNC(=N)N)C(=O)N[C@@H](Cc2ccc(O)cc2)C(N)=O)[C@@H](C)O)NC(=O)[C@H](Cc2cnc[nH]2)NC(=O)[C@H](Cc2c[nH]c3ccccc23)NC(=O)[C@H](CCC(N)=O)NC(=O)[C@H](CO)NC(=O)[C@@H]2CCCN2C(=O)CNC(=O)[C@H](C)NC(=O)[C@H](CCC(=O)O)NC1=O (Ac-CEAGPSQWHCTWRY-NH2; disulfide 1-10) | – | – | inactive | –
9 | -21.1 kcal/mol | CC(=O)N[C@@H](CCCNC(=N)N)C(=O)N[C@H]1CSSC[C@@H](C(=O)N[C@@H](CCCNC(=N)N)C(N)=O)NC(=O)[C@H](Cc2c[nH]c3ccccc23)NC(=O)[C@H](Cc2ccccc2)NC(=O)[C@H]([C@@H](C)O)NC(=O)[C@H](CCC(=O)O)NC(=O)[C@@H]2CCCN2C(=O)CNC(=O)[C@H](Cc2c[nH]c3ccccc23)NC(=O)[C@H](Cc2cnc[nH]2)NC1=O (Ac-RCHWGPETFWCR-NH2; disulfide 2-11) | – | Active | Active | –
10 | -25.6 kcal/mol | CC(=O)N[C@@H](CCCNC(=N)N)C(=O)N[C@H]1CSSC[C@@H](C(=O)N[C@@H](CCCNC(=N)N)C(N)=O)NC(=O)[C@H](Cc2c[nH]c3ccccc23)NC(=O)[C@H](Cc2ccccc2)NC(=O)[C@H]([C@@H](C)O)NC(=O)[C@H](CCCNC(=N)N)NC(=O)[C@@H]2CCCN2C(=O)CNC(=O)[C@H](Cc2c[nH]c3ccccc23)NC(=O)[C@H](Cc2cnc[nH]2)NC1=O (Ac-RCHWGPRTFWCR-NH2; disulfide 2-11) | – | Active | Active | Active
11 | -24.2 kcal/mol | CC(=O)N[C@@H](CCCNC(=N)N)C(=O)N[C@H]1CSSC[C@@H](C(=O)N[C@@H](CCCNC(=N)N)C(N)=O)NC(=O)[C@H](Cc2c[nH]c3ccccc23)NC(=O)[C@H](Cc2ccccc2)NC(=O)[C@H]([C@@H](C)O)NC(=O)[C@H](CCC(=O)O)NC(=O)[C@@H]2CCCN2C(=O)CNC(=O)[C@H](Cc2c[nH]c3ccccc23)NC(=O)[C@H](CO)NC1=O (Ac-RCSWGPETFWCR-NH2; disulfide 2-11) | – | Active | Active | –
12 | -19.4 kcal/mol | C[C@@H](O)[C@H](NC(=O)[C@H](CCCNC(=N)N)NC(=O)[C@@H]1CSSC[C@H](NC(=O)[C@H](CCCNC(=N)N)NC(=O)CN)C(=O)N[C@@H](Cc2cnc[nH]2)C(=O)N[C@@H](Cc2c[nH]c3ccccc23)C(=O)NCC(=O)N2CCC[C@H]2C(=O)N[C@@H](CCC(=O)O)C(=O)N[C@@H]([C@@H](C)O)C(=O)N[C@@H](Cc2ccccc2)C(=O)N[C@@H](Cc2c[nH]c3ccccc23)C(=O)N1)C(=O)O (H-GRCHWGPETFWCRT-OH; disulfide 3-12) | – | – | Active | –
